These results are taken from article PMC7782499, “Progerinin, an optimized progerin-lamin A binding inhibitor, ameliorates premature senescence phenotypes of Hutchinson-Gilford progeria syndrome” (Communications Biology, 2021).

For this experiment, the target named is T1, progerin (Homo sapiens, UniProt P02545).
T1 sequence (P02545 1-614 isoform P02545-6): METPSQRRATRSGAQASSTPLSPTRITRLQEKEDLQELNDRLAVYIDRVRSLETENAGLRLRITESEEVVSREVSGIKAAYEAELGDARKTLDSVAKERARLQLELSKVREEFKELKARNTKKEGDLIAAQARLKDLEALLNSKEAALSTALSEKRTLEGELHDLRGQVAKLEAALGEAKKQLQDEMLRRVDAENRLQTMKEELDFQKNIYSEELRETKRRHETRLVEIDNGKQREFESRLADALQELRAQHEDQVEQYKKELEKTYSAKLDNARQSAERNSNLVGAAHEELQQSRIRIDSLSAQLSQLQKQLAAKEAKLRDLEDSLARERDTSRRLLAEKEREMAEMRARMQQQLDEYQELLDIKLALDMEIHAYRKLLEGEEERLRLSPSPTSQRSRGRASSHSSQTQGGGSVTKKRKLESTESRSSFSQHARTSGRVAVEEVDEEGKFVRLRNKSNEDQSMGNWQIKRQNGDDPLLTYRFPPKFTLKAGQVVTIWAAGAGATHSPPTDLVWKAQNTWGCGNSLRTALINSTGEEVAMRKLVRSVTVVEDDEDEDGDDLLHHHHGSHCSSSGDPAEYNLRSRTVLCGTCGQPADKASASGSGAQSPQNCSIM
As to the kind of experiment: Exogenous GFP-progerin expression in transfected HEK293 cells. Type of experiment: cell-based. The arrangement: expressed in transfected cells; host or cells: HEK293 (ATCC); vector from T. Misteli (NCI). Particulars: for GFP intensity after treatment with SLC-D011, Ave: average; for GFP intensity after treatment with SLC-D011: single replicates. How it is done: A. In vivo pharmacokinetic (PK) analysis of JH010 (performed in rats). […] B Effect of SLC-D011 on human ERG (hERG). […] C In vivo pharmacokinetic analysis of SLD-D011. […] HEK293 cells transiently transfected with GFP-PG vectors were treated with SLC-D011 for 24 hr (n = 3 independent experiment; two-tailed Student’s t test). […] “Con” means dimethyl sulfoxide (DMSO)-treated control.
GFP tag conjugated EV (GFP-EV), lamin A (GFP-LA), lamin A-C661A (GFP-LA-C661A), progerin (GFP-PG), and progerin-C611A (GFP-PG-C611A) vectors were used. GFP-PG and GFP-LA expression vectors were kindly provided by Misteli T. (National Cancer Institute [NCI], Frederick, MD, USA). GFP-LA-C661A and GFP-PG-C611A expression vectors were created by a single point mutation in CaaX motif. The CSIM sequence of lamin A, or progerin was mutated to ASIM. jetPEI (Polyplus Transfection, NY, USA) was used for transfection of expression vectors. Vectors were mixed with 1.5 μl of jetPEI in 150 mM NaCl solution. The mixture was added to HEK293 cells. After 4 h of incubation, medium was replaced with a new medium supplemented with 10% FBS.
Protein was extracted from cells using a radioimmunoprecipitation assay (RIPA) buffer (50 mM Tris-Cl, pH 7.5, 150 mM NaCl, 1% NP-40, 0.1% SDS, and 10% sodium deoxycholate). Samples were separated by sodium dodecyl sulfate-polyacrylamide gel electrophoresis (SDS-PAGE) and transferred to polyvinylidene difluoride (PVDF) membranes. Blotted membranes were blocked with 3% skimmed milk in TBS-T buffer (20 mM Tris pH 7.6, 150 mM NaCl, and 0.05% Tween 20) for 1 h followed by incubation with specific primary antibodies. Horseradish peroxidase (HRP)-conjugated goat anti-mouse, goat anti-rabbit, and mouse anti-goat IgG antibodies (Pierce, Thermo Fisher Scientific, Inc., Rockford, IL, USA) were used as secondary antibodies. Peroxidase activity was detected by chemiluminescence using an ECL kit (Intron, Seoul, Korea) following the manufacturer’s instructions. Bands were quantified using Image J software (National Institute of Health, NIH).

Several values for one entry are separate records, joined by “and”; a condition that tells them apart may be missing. Equal entries are not always repeated.

For `CC1(C)Oc2cc3oc(=O)ccc3cc2C[C@@H]1OC/C=C/c1ccccc1` [SLC-D011], the “GFP intensity after treatment with SLC-D011, Ave” value by setting is: (10nM) 23.7595 AU; (50nM) 15.0559 AU; (100nM) 3.935 AU; (500nM) 1.357 AU; (1μM) 1.02 AU; (2μM) 0.8179 AU. For the same molecule, the “GFP intensity after treatment with SLC-D011, Ave” value (5μM) was 0.08935 AU. The “GFP intensity after treatment with SLC-D011” value is 22.794 AU and 22.0662 AU and 26.4183 AU (10nM); 15.1696 AU and 15.171 AU and 14.827 AU (50nM); 3.384 AU and 4.172 AU and 4.251 AU (100nM); 1.4575 AU and 1.25 AU and 1.363 AU (500nM); 0.898 AU and 1.076 AU and 1.085 AU (1μM); 0.8856 AU and 0.7639 AU and 0.8042 AU (2μM). Moreover, the “GFP intensity after treatment with SLC-D011” value (5μM) was 0.1141 AU and 0.03666 AU and 0.1173 AU. The “Concentration from which exogenous progerin expression is reduced” value (HEK293, GFP-PG, 24 hr) came out at 100 nM.
